{
  "source": "patent US20250275948A1",
  "about": "“(N-[4-(2,3-DIHYDRO-1H-INDEN-5-YL)-1,3-THIAZOL-2-YL]-2-[4-METHYL-4-(NAPHTHALEN-2-YL)-2,5-DIOXOIMIDAZOLIDIN-1-YL]ACETAMIDE AS STABILIZER OF CLOCK:BMAL1 INTERACTION FOR THE TREATMENT OF CIRCADIAN RHYTHM DISEASES AND DISORDERS” (KOC UNIVERSITESI, priority 2022, published 2025)",
  "test_system": "NIH 3T3 Bmal1-dLuc and U2OS Bmal1-dLuc cells",
  "test": "Real-time monitoring of circadian oscillation",
  "format": "cell-based",
  "protocol": "NIH 3T3 Bmal1-dLuc and U2OS Bmal1-dLuc cells were used for real-time monitoring of circadian oscillation. While LumiCycle 32 (Actimetrics, USA) was used for recording the luminescence signals of NIH 3T3 Bmal1-dLuc cells, Synergy H1 (BioTek, USA) was used for recording the luminescence signals of U2OS Bmal1-dLuc cells. NIH 3T3 Bmal1-dLuc cells were plated in 35 mm cell culture dish at density of 45×10^4 cell/plate and incubated overnight at 37° C. under 5% CO2. The next day, cell medium was replaced with 0.1 μM Dexamethasone (Sigma D-8893) containing DMEM to synchronize the cells. After 2 hours incubation, cell media was exchanged with appropriate amount of CLK95 containing recording medium (10 g low glucose DMEM powder (Sigma D2902), 3.5 mg/mL D(+) glucose powder (Sigma G7021), 0.35 mg/mL sodium bicarbonate (Sigma S5761), 10 mM HEPES (Gibco 15630106), 5% FBS (Gibco, 16000044), 1% NEAA (Multicell 321-011-EL), 25 U/mL streptomycin-penicillin (Gibco 15140-122) which was supplemented with 0.1 mM Luciferin. Then plates were sealed with silicone grease to prevent evaporation and immediately placed in LumiCycle. This instrument continuously recorded the luminescence for each plate for 5-7 days with 10 minutes intervals at 37° C. LumiCycle Analysis software (Actimetrics) was used to analyse the changes in circadian rhythm. The data of the first day was excluded from analysis due to transient deviations caused after medium change.\nFor the experiments that were performed using Synergy-H1, U2OS Bmal1-dLuc cells were plated as triplicates into an opaque 96-well plate (5×10^4 cell/well). After synchronizing and treating the cells with CLK95, opaque 96-well plate was sealed with an optically clear film and placed under Synergy-H1 instrument. Luminescence signals were recorded for 5-7 days with 24 minutes intervals at 32° C.",
  "key": {"[1]": {"settings": "NIH3T3 Bmal1-dLuc (Lumicycle) and U2OS Bmal1-dLuc (Synergy H1) cells"}},
  "data": [
    {"smiles": "CC1(c2ccc3ccccc3c2)NC(=O)N(CC(=O)Nc2nc(-c3ccc4c(c3)CCC4)cs2)C1=O", "note": "(stereo not shown) [CLK95]", "values": [
      {"measurement": "effect on circadian rhythm", "setting": "Bmal1-dLuc U2OS cells", "result": "destroying the circadian rhythm"},
      {"measurement": "effect on circadian amplitude", "setting": "[1]", "result": "decreases the amplitude"},
      {"measurement": "effect on circadian period", "setting": "[1]", "result": "increases the period"},
      {"measurement": "effect of higher doses on endogenous clock", "setting": "higher doses", "result": "completely suppress the endogenous clock"}
    ]}
  ]
}
